Laboratory results from ChEMBL document CHEMBL1140306 (J Med Chem, 2005).

Experiments:
[1] = target: T1, Acetylcholinesterase (Homo sapiens, UniProt P22303); assay: Inhibition of human AChE induced beta-amyloid aggregation in thioflavin T-based fluorometric assay; format: functional; set-up: concentration or dose not given beside the values; conditions: concentration not given here
[2] = target: Cholinesterase (Homo sapiens, UniProt P06276); assay: Inhibition of isolated human BuChE
[3] = target: T1, Acetylcholinesterase; assay: Inhibition of recombinant human AChE
[4] = target: Cholinesterases; ACHE & BCHE (Homo sapiens) (UniProt P06276+P22303); assay: Ratio of IC50 for human BuChE and AChE; format: protein assay
Cholinesterases; ACHE & BCHE (Homo sapiens), sequence (P06276 whole entry, looked up): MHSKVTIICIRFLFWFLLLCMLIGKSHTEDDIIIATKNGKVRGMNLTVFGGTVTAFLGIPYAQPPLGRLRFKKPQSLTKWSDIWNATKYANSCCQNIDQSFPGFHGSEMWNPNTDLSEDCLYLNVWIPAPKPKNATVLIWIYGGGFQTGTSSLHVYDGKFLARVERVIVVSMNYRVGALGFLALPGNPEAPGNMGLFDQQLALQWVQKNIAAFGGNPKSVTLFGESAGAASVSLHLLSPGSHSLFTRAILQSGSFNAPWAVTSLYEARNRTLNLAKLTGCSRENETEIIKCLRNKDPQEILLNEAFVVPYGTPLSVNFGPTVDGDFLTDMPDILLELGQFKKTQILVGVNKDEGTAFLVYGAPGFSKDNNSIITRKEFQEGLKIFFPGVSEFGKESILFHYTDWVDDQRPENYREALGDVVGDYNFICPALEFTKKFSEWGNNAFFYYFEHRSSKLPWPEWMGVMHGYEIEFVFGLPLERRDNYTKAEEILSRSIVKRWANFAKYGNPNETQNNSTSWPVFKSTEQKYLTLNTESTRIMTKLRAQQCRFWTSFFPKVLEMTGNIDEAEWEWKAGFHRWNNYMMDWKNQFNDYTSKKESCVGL
Cholinesterases; ACHE & BCHE (Homo sapiens), sequence (P22303 whole entry, looked up): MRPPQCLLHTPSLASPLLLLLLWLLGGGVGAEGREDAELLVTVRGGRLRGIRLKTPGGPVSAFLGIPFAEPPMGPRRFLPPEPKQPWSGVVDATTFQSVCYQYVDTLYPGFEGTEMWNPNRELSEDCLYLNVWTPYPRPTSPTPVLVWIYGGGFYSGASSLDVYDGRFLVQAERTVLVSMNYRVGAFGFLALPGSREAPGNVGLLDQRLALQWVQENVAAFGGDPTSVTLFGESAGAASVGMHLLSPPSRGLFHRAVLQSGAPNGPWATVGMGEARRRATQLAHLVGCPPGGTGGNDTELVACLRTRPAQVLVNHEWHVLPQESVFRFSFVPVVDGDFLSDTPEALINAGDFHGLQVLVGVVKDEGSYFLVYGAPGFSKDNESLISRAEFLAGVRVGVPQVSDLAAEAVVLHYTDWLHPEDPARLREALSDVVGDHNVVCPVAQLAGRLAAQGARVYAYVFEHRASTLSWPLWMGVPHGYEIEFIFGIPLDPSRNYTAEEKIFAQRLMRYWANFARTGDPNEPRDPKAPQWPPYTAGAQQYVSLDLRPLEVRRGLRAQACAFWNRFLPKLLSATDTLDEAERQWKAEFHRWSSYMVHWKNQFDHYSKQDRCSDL

Cholinesterase, sequence (P06276 whole entry): as the sequence (P06276 whole entry, looked up) above
T1 sequence (P22303 whole entry): as the sequence (P22303 whole entry, looked up) above

Compound | inhibition [1] | IC50 [2] | IC50 [3] | Ratio [4]
CNC(=O)Oc1cccc(CN(C)CCCOc2ccc3c(c2)O/C(=C\c2cc(OC)c(OC)c(OC)c2)C3=O)c1 | 29.2% | 155 nM | 2.99 nM | 51.8
CNC(=O)Oc1cccc(CN(C)CCCCCCCOc2ccc3c(c2)O/C(=C\c2ccc(Cl)c(Cl)c2)C3=O)c1 | 49.1% | 94.6 nM | 8 nM | 11.8
CNC(=O)Oc1cccc(CN(C)CCCCCCCOc2ccc3c(c2)O/C(=C\c2c4ccccc4cc4ccccc24)C3=O)c1 | 65.3% | 761 nM | 79.1 nM | 9.6
CNC(=O)Oc1ccc2c(c1)[C@]1(C)CCN(C)[C@@H]1N2C | 30% |  |  | 
CNC(=O)Oc1cccc(CN(C)CCCCCCCOc2ccc3c(c2)O/C(=C\c2cc(OC)c(OC)c(OC)c2)C3=O)c1 | 41% | 136 nM | 0.52 nM | 261
CNC(=O)Oc1cccc(CN(C)CCCCCCCOc2ccc3c(c2)O/C(=C\c2ccccc2)C3=O)c1 | 43.3% | 57.9 nM | 1.95 nM | 29.7
CNC(=O)Oc1cccc(CN(C)CCCOc2ccc3c(c2)O/C(=C\c2ccc4ccccc4c2)C3=O)c1 | 35% | 70.3 nM | 3.41 nM | 20.6
CNC(=O)Oc1cccc(CN(C)CCCCCCCOc2ccc3c(c2)O/C(=C\c2cc(Cl)cc(Cl)c2)C3=O)c1 | 47.6% | 130 nM | 44.6 nM | 2.91
CNC(=O)Oc1cccc(CN(C)CCCCCCCOc2ccc3c(c2)CC/C(=C\c2cc(OC)c(OC)c(OC)c2)C3=O)c1 | 33.3% | 84.4 nM | 4.94 nM | 17.1
CNC(=O)Oc1cccc(CN(C)CCCCCCCOc2ccc3c(c2)C/C(=C\c2cc(OC)c(OC)c(OC)c2)C3=O)c1 | 32.8% | 81.3 nM | 1.8 nM | 45.2
CN(CCCCCCCOc1ccc2c(c1)O/C(=C\c1cccc3ccccc13)C2=O)Cc1cccc(O)c1 | 49.5% |  |  | 0.09
CNC(=O)Oc1cccc(CN(C)CCCCCCCOc2ccc3c(c2)OCC3=O)c1 | 17.5% | 11400 nM |  | 7.08
CNC(=O)Oc1cccc(CN(C)CCCOc2ccc3c(c2)O/C(=C\c2cccc4ccccc24)C3=O)c1 | 37.2% | 44.3 nM | 6.86 nM | 6.45
CNC(=O)Oc1cccc(CN(C)CCCCCCCOc2ccc3c(c2)OC/C(=C\c2cc(OC)c(OC)c(OC)c2)C3=O)c1 | 45.3% | 153 nM | 9.81 nM | 15.6
CNC(=O)Oc1cccc(CN(C)CCCOc2ccc3c(=O)c4ccccc4oc3c2)c1 | < 10% |  |  | 
CNC(=O)Oc1cccc(CN(C)CCCCCCCOc2ccc3c(c2)O/C(=C\c2cccc4ccccc24)C3=O)c1 | 66.7% | 40.2 nM | 2.76 nM | 14.5
CNC(=O)Oc1cccc(CN(C)CCCCCCCOc2ccc3c(=O)c4ccccc4oc3c2)c1 | < 10% |  |  | 51.6
